Measurements reported in patent publication US12004868B2, “Liposomal mitigation of drug-induced inhibition of the cardiac IKr channel” (Signpath Pharma, Inc., priority 2011, dated 2024).
Where a name gives a salt, the structure may show the parent alone. Read-outs that look alike come from different tables or passages of the source. Marks after values point to notes of the source that are not given here.

Key:
[1] = cited from earlier work; for incidence of QT prolongation: patients, Aloxi at doses above 2.25 mg, sotalol 1288 patients, vandetanib grade 3/4
calcium channel = details: literature; read-out: calcium channel blocking EC50; cited from earlier work
rabbit heart [2] = test system: rabbit heart
NaV1.5 = NaV1.5 (Homo sapiens, UniProt Q14524); details: literature; read-out: NaV1.5 IC50 (Doherty et al); cited from earlier work
Chain of NaV1.5 (Q14524 whole entry): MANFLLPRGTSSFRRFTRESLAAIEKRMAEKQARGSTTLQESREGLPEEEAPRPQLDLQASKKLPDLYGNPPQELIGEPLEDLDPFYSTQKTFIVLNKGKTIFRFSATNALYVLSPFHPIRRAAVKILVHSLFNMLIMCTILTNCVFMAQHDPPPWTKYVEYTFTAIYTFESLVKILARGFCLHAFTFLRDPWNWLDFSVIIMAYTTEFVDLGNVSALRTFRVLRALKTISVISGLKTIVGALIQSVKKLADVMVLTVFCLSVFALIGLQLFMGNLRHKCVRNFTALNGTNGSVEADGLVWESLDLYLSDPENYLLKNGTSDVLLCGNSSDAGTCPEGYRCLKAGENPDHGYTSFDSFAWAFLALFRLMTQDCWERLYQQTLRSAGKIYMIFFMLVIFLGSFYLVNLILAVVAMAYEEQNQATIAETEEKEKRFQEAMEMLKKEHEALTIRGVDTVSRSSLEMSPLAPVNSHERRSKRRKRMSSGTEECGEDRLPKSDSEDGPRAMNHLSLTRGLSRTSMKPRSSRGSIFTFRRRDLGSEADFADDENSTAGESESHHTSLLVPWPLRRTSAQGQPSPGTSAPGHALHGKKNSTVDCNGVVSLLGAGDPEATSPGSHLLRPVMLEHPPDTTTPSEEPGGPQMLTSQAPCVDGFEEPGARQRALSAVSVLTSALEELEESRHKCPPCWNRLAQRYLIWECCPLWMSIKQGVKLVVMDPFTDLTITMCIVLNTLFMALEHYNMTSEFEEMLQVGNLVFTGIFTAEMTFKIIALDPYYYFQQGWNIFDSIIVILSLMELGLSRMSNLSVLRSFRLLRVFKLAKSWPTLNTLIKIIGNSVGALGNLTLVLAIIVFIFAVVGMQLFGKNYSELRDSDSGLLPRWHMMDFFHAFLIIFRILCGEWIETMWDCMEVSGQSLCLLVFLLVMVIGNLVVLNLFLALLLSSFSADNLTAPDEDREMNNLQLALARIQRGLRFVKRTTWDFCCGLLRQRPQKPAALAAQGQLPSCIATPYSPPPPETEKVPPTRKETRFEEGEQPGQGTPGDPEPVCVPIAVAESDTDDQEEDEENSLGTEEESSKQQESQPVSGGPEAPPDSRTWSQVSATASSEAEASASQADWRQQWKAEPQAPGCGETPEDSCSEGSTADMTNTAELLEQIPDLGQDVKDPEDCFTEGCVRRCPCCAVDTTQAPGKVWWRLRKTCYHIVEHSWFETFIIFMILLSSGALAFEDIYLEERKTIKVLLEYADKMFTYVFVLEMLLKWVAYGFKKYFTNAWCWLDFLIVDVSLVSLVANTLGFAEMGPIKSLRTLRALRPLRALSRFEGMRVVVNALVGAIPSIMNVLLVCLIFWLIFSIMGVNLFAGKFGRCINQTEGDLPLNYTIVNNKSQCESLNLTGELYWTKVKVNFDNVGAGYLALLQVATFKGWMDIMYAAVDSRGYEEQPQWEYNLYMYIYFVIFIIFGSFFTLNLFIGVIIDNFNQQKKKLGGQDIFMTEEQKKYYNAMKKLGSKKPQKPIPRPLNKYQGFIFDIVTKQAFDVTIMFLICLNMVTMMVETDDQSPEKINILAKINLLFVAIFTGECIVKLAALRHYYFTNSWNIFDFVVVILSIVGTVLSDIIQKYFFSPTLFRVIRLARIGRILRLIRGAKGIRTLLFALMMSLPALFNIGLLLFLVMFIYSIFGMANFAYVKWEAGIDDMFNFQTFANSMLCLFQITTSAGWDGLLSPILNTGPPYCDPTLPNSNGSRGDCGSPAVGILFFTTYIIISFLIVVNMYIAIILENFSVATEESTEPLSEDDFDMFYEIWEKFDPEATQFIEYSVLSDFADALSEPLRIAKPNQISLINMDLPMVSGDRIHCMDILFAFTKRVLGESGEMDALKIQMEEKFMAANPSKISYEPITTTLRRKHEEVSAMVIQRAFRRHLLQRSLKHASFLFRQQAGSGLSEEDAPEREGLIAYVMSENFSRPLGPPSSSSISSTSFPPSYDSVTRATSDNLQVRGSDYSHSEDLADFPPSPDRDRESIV

CaV = details: literature; read-out: CaV IC50 (Doherty et al); cited from earlier work
[3] = cited from earlier work; for Cmax: read-out: steady state Cmax
[4] = crizotinib intravenously; nilotinib orally up to 600 mg/kg; cited from earlier work
in vitro rabbit heart [5] = test: In vitro rabbit heart QTc intervals; parameters: dose or concentration left out as unconfirmed; details: liposomes 9:1
in vitro rabbit hearts = test: Left ventricular pressure in in vitro rabbit hearts
IKs = IKs (Homo sapiens, UniProt P51787); details: literature; cited from earlier work
Chain of IKs (P51787 whole entry): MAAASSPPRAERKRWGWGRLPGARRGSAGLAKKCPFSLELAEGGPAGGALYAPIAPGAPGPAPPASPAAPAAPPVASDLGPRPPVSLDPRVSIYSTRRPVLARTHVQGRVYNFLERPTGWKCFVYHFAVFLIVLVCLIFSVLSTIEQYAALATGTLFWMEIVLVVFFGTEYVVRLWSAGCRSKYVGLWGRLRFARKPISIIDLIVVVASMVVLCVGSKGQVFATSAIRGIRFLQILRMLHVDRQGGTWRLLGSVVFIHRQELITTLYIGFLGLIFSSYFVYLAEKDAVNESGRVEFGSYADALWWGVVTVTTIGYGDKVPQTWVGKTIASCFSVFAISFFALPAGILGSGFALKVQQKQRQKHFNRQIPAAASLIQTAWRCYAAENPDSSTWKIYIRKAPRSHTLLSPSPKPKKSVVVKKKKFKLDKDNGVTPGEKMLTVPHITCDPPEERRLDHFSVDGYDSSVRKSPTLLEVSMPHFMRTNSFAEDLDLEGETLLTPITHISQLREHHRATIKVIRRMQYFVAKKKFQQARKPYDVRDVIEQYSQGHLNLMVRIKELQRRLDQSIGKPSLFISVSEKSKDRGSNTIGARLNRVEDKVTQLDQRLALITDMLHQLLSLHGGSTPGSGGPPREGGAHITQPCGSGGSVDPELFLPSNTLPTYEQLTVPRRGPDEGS

[6] = cited from earlier work
hERG = hERG (Homo sapiens, UniProt Q12809); details: cited from earlier work
Chain of hERG (Q12809 whole entry): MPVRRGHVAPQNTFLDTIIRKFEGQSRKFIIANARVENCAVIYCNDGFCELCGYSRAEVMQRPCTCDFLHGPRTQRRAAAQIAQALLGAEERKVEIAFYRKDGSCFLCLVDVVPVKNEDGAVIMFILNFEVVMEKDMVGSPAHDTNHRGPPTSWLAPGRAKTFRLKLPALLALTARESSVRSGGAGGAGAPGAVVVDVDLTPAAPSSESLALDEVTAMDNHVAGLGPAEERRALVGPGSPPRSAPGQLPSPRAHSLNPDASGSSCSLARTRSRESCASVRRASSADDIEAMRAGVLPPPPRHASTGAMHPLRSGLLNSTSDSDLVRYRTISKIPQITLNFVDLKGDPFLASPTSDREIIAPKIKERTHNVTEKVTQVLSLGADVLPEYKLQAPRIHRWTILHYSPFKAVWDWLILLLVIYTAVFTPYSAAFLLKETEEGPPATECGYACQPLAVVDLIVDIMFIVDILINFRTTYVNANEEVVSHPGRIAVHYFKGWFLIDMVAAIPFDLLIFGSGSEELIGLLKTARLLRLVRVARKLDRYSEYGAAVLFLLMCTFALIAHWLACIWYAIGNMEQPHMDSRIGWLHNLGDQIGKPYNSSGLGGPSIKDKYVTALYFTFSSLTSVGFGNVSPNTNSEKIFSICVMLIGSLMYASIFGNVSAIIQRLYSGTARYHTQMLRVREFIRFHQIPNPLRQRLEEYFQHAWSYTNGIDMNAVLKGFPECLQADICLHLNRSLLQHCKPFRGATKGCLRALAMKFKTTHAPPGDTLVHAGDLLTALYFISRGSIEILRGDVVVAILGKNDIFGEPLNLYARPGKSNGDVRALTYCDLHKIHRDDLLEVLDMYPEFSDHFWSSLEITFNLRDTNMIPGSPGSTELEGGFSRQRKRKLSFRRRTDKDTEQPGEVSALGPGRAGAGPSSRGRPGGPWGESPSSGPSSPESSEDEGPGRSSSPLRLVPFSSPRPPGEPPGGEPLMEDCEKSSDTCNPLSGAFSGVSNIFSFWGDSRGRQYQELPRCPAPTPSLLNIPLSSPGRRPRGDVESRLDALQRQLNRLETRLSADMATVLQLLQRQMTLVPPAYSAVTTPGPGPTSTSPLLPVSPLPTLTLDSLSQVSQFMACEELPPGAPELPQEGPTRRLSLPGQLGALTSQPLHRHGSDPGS

[7] = test system: isolated rabbit Purkinje fibers; details: 5 μM; cited from earlier work
rabbit heart [8] = test system: rabbit heart; remark: listed apart in the source
in vitro rabbit heart [9] = test system: in vitro rabbit heart
[10] = cited from earlier work; remark: listed apart in the source
[11] = crizotinib 2 mg/kg, vs baseline
[12] = crizotinib 3 mg/kg, vs baseline
[13] = cancer patients given 500 mg BID
[14] = children with cancer, 280 mg/m^2 BID
[15] = read-out: hERG IC50, literature
[16] = Chinese patients given 400 mg BID
[17] = cancer patients given 400 mg BID

O=C1c2cccc3c2[C@H](CCC3)CN1[C@@H]1CN2CCC1CC2 [Aloxi, palonasitron HCL]
incidence of EKG adverse events ([1]; doses above 2.25 mg): > 2%
incidence of bradycardia ([1]; doses above 2.25 mg): 4%
incidence of QT prolongation [1]: 5%

CC(C)COCC(CN(Cc1ccccc1)c1ccccc1)N1CCCC1 (centres unmarked) [Bepridil]
EC50 (calcium channel): 10 µM

C[C@@H](Oc1cc(-c2cnn(C3CCNCC3)c2)cnc1N)c1c(Cl)ccc(F)c1Cl [Crizotinib]
QRS Intervals (rabbit heart [2]; crizotinib 1 mg/kg IV): 48 ms
QT Intervals (rabbit heart [2]; crizotinib 1 mg/kg IV): 189* ms
QTc interval (Van der Water) (rabbit heart [2]; crizotinib 1 mg/kg IV): 251* ms
QRS Intervals (rabbit heart [2]; crizotinib 2 mg/kg IV): 53* ms
QT Intervals (rabbit heart [2]; crizotinib 2 mg/kg IV): 205* ms
QTc interval (Van der Water) (rabbit heart [2]; crizotinib 2 mg/kg IV): 264* ms
RR Intervals (rabbit heart [2]; crizotinib 2 mg/kg IV): 324* ms
QT interval prolongation (rabbit heart [2]; [11]): 34 ms
RR interval prolongation (rabbit heart [2]; [11]): 67 ms
QRS Intervals (rabbit heart [2]; crizotinib 3 mg/kg IV): 56* ms
QT Intervals (rabbit heart [2]; crizotinib 3 mg/kg IV): 218* ms
QTc interval (Van der Water) (rabbit heart [2]; crizotinib 3 mg/kg IV): 273* ms
RR Intervals (rabbit heart [2]; crizotinib 3 mg/kg IV): 367* ms
PR interval prolongation (rabbit heart [2]; [12]): 23 ms
QRS interval prolongation (rabbit heart [2]; [12]): 13 ms
QT interval prolongation (rabbit heart [2]; [12]): 48 ms
QTc interval prolongation (Van der Water) (rabbit heart [2]; [12]): 38 ms
RR interval prolongation (rabbit heart [2]; [12]): 110 ms
RR Intervals (rabbit heart [2]; crizotinib loading dose 1 mg/kg IV): 294* ms
IC50 (NaV1.5): 3.5 µM
IC50 (CaV): 3.1 µM
steady state Cmax [3, 13]: 650 ng/mL
Cmax [3, 13]: 1500 nM
steady state Cmax [3, 14]: 630 ng/mL
Cmax [3, 14]: 1400 nM
ECG effect in dogs (in words) [4]: increased PR-, QRS- and QT-intervals
effect on the QTc interval of in vitro rabbit hearts (in words) (in vitro rabbit heart [5]): dose dependent prolongation of the QTc interval
effect on LVP (in words) (in vitro rabbit hearts): decrease in LVP

COc1cccc2c1C(=O)c1c(O)c3c(c(O)c1C2=O)C[C@@](O)(C(=O)CO)C[C@@H]3O[C@H]1C[C@H](N)[C@H](O)[C@H](C)O1 [Doxorubicin]
IC50 (IKs): 4.78 µM
QTc prolongation ([6]; 30 uM): 13%

CCCCc1oc2ccc(NS(C)(=O)=O)cc2c1C(=O)c1ccc(OCCCN(CCCC)CCCC)cc1 [Dronedarone]
IC50 (hERG; [15]): 0.07 µM
IC50 (hERG; read-out: hERG IC50, wild type hERG tails at −40 mV following activation at +30 mV): 0.059 µM

O=C(CCCN1CCC(O)(c2ccc(Cl)cc2)CC1)c1ccc(F)cc1 [Haloperidol]
hERG blocker potency (in words) (hERG): high potency hERG blocker

CS(=O)(=O)CCNCc1ccc(-c2ccc3ncnc(Nc4ccc(OCc5cccc(F)c5)c(Cl)c4)c3c2)o1 [Lapatinib]
action potential duration (in words) [7]: prolong action potential duration

CCC(=O)C(CC(C)N(C)C)(c1ccccc1)c1ccccc1 (centres unmarked) [Methadone]
IC50 (hERG; [15]): 4.8 µM

COc1c(N2C[C@@H]3CCCN[C@@H]3C2)c(F)cc2c(=O)c(C(=O)O)cn(C3CC3)c12 [Moxifloxacin]
QTc prolongation ([6]; 100 uM): 22%

Cc1cn(-c2cc(NC(=O)c3ccc(C)c(Nc4nccc(-c5cccnc5)n4)c3)cc(C(F)(F)F)c2)cn1 [Nilotinib]
PR Intervals (rabbit heart [8]; nilotinib 2 mg/kg IV): 78 ms
QRS Intervals (rabbit heart [8]; nilotinib 2 mg/kg IV): 44* ms
QT Intervals (rabbit heart [8]; nilotinib 2 mg/kg IV): 182* ms
QTc Intervals (Van der Water) (rabbit heart [8]; nilotinib 2 mg/kg IV): 245* ms
PR Intervals (rabbit heart [8]; nilotinib 4 mg/kg IV): 80 ms
QRS Intervals (rabbit heart [8]; nilotinib 4 mg/kg IV): 46* ms
QT Intervals (rabbit heart [8]; nilotinib 4 mg/kg IV): 201* ms
QTc Intervals (Van der Water) (rabbit heart [8]; nilotinib 4 mg/kg IV): 262* ms
RR Intervals (rabbit heart [8]; nilotinib 4 mg/kg IV): 307 ms
QRS interval prolongation (rabbit heart [8]; nilotinib 4 mg/kg, vs baseline): 6 ms
QT interval prolongation (rabbit heart [8]; nilotinib 4 mg/kg, vs baseline): 41 ms
QTc interval prolongation (rabbit heart [8]; nilotinib 4 mg/kg, vs baseline): 36 ms
RR Intervals (rabbit heart [8]; nilotinib loading dose 2 mg/kg IV): 273 ms
effect on the QTc interval of in vitro rabbit hearts (in words) (in vitro rabbit heart [9]): dose dependent prolongation of the QTc interval
IC50 (CaV): > 3 µM
steady state Cmax [3, 16]: 2161 ng/mL
Cmax [3, 16]: 4100 nM
steady state Cmax [3, 17]: 1754 ng/mL
Cmax [3, 17]: 3300 nM

[K+] [Potassium]
reduction of the QTc interval ([10]; plasma concentration raised by 1.5 mEq/L above baseline): 24%

COc1ccc(CN(CCN(C)C)c2ccccn2)cc1 [Pyrilamine]
hERG blocker potency (in words) (hERG): low potency hERG blocker

CC(C)NCC(O)c1ccc(NS(C)(=O)=O)cc1 (centres unmarked) [Sotalol]
incidence of QT prolongation [1]: 2%

COc1cc2c(Nc3ccc(Br)cc3F)ncnc2cc1OCC1CCN(C)CC1 [Vandetanib]
incidence of QT prolongation [1]: > 5%

CC(=O)Oc1ccc2c3c1O[C@H]1[C@@H](OC(C)=O)C=C[C@H]4[C@@H](C2)N(C)CC[C@@]341 [heroin]
IC50 (hERG): 427 µM

CC(C)NCC(O)COc1cccc2ccccc12 (centres unmarked) [propranolol]
decrease of risk of cardiac events ([10]; LQT1): 81%
subjects still developing cardiac events on adequate treatment ([10]; LQT1): 10%
subjects still developing cardiac events ([10]; LQT2): 23%
decrease of cardiac event risk ([10]; LQT2 subjects): 59%
subjects developing cardiac events on adequate treatment ([10]; LQT3): 32%

Arsenic trioxide
hERG blocker potency (in words) (hERG; literature): ineffective hERG blocker
IC50 (hERG; [15]): > 300 µM
